One data set in a line: Toxicity in mice. It counts as in vivo, Balb/c mice. As to the method:
It was assumed that the maximum human dose of ERC 9 would be 2 mg per 50 kg (or […]) body weight. Mouse studies were done at a rate of 500 times the maximum human dose on a weight basis. Five Balb/c male and five Balb/c female mice were injected via the tail vein with 0,005 ml per gram body weight of a solution of ERC 9 in water (4 mg per ml) on each of three occasions one day apart. The animals were maintained for 30 days.

Data set [1] is described as follows: Human radiation dosimetry of I-123 ERC 9 estimated from tissue distribution in mice (MIRD). The conditions noted are these: MIRD calculation from mouse tissue distribution. Further details: species or system human (from Balb/c mouse data). As for the experimental part: The human radiation dose from I-123 ERC 9 was estimated from tissue distribution data in mice.
Male Balb/c mice were injected via the tail vein with I-125 ERC 9 (20 μg, 0.01 MBq, in 0.1 ml). At specific time periods from 5 minutes to 24 hours after administration, six mice were killed by CO2 asphyxiation. Blood samples were taken and various organs were removed. The radioiodine uptake in various organs and tissues was determined by counting in a gamma spectrometric detector. The amount of radioactivity in each organ or tissue was compared to that in a standard of the injected dose. The percent uptake was calculated for each organ of each animal. The mean percent uptake in the organs was calculated for the animals at each time period.
The mean uptakes for each of the organs and tissues were plotted versus time on semilogarithmic paper. From these plots, the uptake and clearance half times for each of the organs and tissues were calculated.
Using these values and the MIRD (Society of Nuclear Medicine) method of dosimetry calculations, the human radiation doses from I-123 were calculated.

Data set [2] can be described thus: Pancreatic imaging in human volunteers (planar and SPECT gamma camera). It counts as in vivo. As to the method: Imaging studies have been done in two human volunteers using I-123 ERC 9.
I-123 ERC 9 (185 MBq, 2 mg), prepared as in Example 2, was injected intravenously into the two volunteers. Using a gamma camera with SPECT (Single Photon Emission Computed Tomography) capability, planar images were obtained at 30 minutes, 1.5 hours, 3 hours and 24 hours after injection. SPECT images were obtained at 3-4 hours after injection.

Data set [3] is described as follows: Pancreas uptake and pancreas to liver ratio in Balb/c mice (radioiodine biodistribution). It counts as in vivo. As to conditions: for P/L (percent dose in pancreas / percent dose in liver) / Pancreas uptake (mean percent administered dose per organ): I-125 label, 20 μg i.v., male Balb/c mice, mean ± standard deviation; for pancreas/liver ratios compared with HIPDM: all time periods from 30 minutes to 24 hours. As for the experimental part: The pancreatic uptake and pancreas/liver ratio of I-125 ERC 9 (prepared as in Examples 1 and 2) and I-125-HIPDM were compared in mice. Male Balb/c mice were injected via the tail vein with I-125 ERC 9 or I-125 HIPDM (20 μg, 0.01 MBq, in 0.1 ml). At specific time periods from 5 minutes to 24 hours after administration, six mice from each group were killed by CO2 asphyxiation. Blood samples were taken and various organs (including the pancreas and liver) were removed. The radioiodine uptake in various organs was determined by counting in a gamma spectrometric detector. The amount of radioactivity in each organ or tissue was compared to that in a standard of the injected dose. The percent uptake was calculated for each organ of each animal. The pancreas to liver ratio was calculated by dividing the percent uptake in the pancreas by the percent uptake in the liver. The mean uptake in the organs and the mean pancreas/liver ratio was calculated for the animals at each time period.
The pancreatic uptake and pancreas/liver ratios of I-125 ERC 46 and I-125 HIPDM were compared in Balb/c mice as described in Example 6.
The pancreas uptake and pancreas/liver ratios of I-125 ERC 90 and I-125 HIPDM were compared in Balb/c mice as described in Example 6.
The pancreas uptakes and pancreas/liver ratios of I-125 ERC 94 and I-125 HIPDM were compared in Balb/c mice as described in Example 6.

For data set [4] the following is noted: rats and mice; Yamamoto et al.; cited from earlier work.
For data set [5] the following is noted: cited from earlier work.
For data set [6] the following is noted: cited from earlier work. The source holds these as a separate data set.
[7] abbreviates: 500 times maximum human dose, i.v., three occasions one day apart, maintained 30 days.
Setting [8] is: I-123 ERC 9, 185 MBq, 2 mg i.v.
Setting [9] is: planar and SPECT images, 3-4 hours.
Setting [10] is: 30 minutes after administration.
Where [11] appears, read: 4 and 24 hours after administration.
[12] abbreviates: human clinical studies, Yamamoto et al.

The structures appear in SMILES notation.

`Cc1cc([125I])cc(CN(C)CCCN2CCOCC2)c1O` [ERC 9, N[3(4-morpholino)propyl]-N-methyl-2-hydroxy-3-methyl-5-iodobenzylamine]: in the data set “Toxicity in mice” (setting [7]), the “histological examination of various organs and tissues” value is “no changes that could be attributed to chemical toxicity”; the “immediate or delayed toxicity” value is given as “no indication of immediate or delayed toxicity”. For the same compound, in “Toxicity in mice” (animal studies), the chemical toxicity entry is recorded as “low chemical toxicity”. For the same compound, in data set [1], the “human radiation dose to the pancreas” value is given as “approximately 15.5 mGy per 111 MBq”. The “visualization of the pancreas” value in data set [2] (24 hours after injection) is “less than optimal although still present”. Also, the “quality of pancreatic images” value in data set [2] (FIGS. 2 and 3, human volunteers) was “High quality pancreatic images”. Moreover, in data set [2] (setting [8]), the “time at which uptake of the radiotracer was seen” value was at most 30 min; the “time of optimum pancreatic uptake and pancreas/liver ratio” value is 3 to 4 h. Also, in data set [2] (setting [9]), the “accumulation of radiolabel in pancreas” value was “high degree of accumulation of radiolabel in normal human pancreas” and the “discrimination of pancreas from other abdominal organs” value is reported as “good discrimination of pancreas from other abdominal organs”. Also, in data set [3] (5 minutes after administration), the “P/L (percent dose in pancreas / percent dose in liver)” value was determined as 0.40 ± 0.10 and the “Pancreas uptake (mean percent administered dose per organ)” value is given as 2.08 ± 0.90 percent administered dose per organ. Moreover, in data set [3] (setting [10]), the “P/L (percent dose in pancreas / percent dose in liver)” value is 0.61 ± 0.05 and the “Pancreas uptake (mean percent administered dose per organ)” value is 4.52 ± 0.75 percent administered dose per organ. Besides, in data set [3] (1 hour after administration), the “P/L (percent dose in pancreas / percent dose in liver)” value is 0.66 ± 0.14 and the “Pancreas uptake (mean percent administered dose per organ)” value is reported as 4.79 ± 0.70 percent administered dose per organ. Also, in data set [3] (4 hours after administration), the “P/L (percent dose in pancreas / percent dose in liver)” value is 2.02 ± 0.67 and the “Pancreas uptake (mean percent administered dose per organ)” value is 6.60 ± 1.84 percent administered dose per organ. Also, in data set [3] (24 hours after administration), the “P/L (percent dose in pancreas / percent dose in liver)” value is given as 2.54 ± 0.34 and the “Pancreas uptake (mean percent administered dose per organ)” value is on record as 3.30 ± 0.53 percent administered dose per organ. In data set [3] (at all time intervals), the “mean pancreas/liver ratio compared with HIPDM” value is given as “greater than that for HIPDM”.
On to `Cc1cc([125I])cc(CN(C)CCCN2CCCC2)c1O` [ERC 46, N[3(1-Pyrrolidino)propyl]-N-methyl-2-hydroxy-3-methyl-5-iodobenzylamine], for which the “pancreas uptake compared with HIPDM” value is “higher pancreas uptake than did HIPDM” in data set [3] (setting [11]) and “lower” in data set [3] (early time periods). Also, the “P/L (percent dose in pancreas / percent dose in liver)” value in data set [3] (5 minutes after administration) was 0.22 ± 0.04; in data set [3] (setting [10]), 0.54 ± 0.09; in data set [3] (1 hour after administration), 0.78 ± 0.20; in data set [3] (4 hours after administration), 2.11 ± 0.32; in data set [3] (24 hours after administration) it was 7.47 ± 1.40. Moreover, the “Pancreas uptake (mean percent administered dose per organ)” value is given as 1.34 ± 0.32 percent administered dose per in data set [3] (5 minutes after administration); 4.14 ± 0.68 percent administered dose per in data set [3] (setting [10]); 3.74 ± 0.69 percent administered dose per in data set [3] (1 hour after administration); 5.95 ± 0.78 percent administered dose per in data set [3] (4 hours after administration); 4.91 ± 0.43 percent administered dose per in data set [3] (24 hours after administration). The “pancreas/liver ratios compared with HIPDM” value in data set [3] is “significantly higher”.
As to `Cc1cc([125I])cc(CN(C)CCCN2CCCCC2)c1O` [ERC 90, N[3(1-piperidino)propyl]-N-methyl-2-hydroxy-3-methyl-5-iodobenzylamine], the “pancreas uptake compared with HIPDM” value in data set [3] (setting [11]) was “higher pancreas uptakes than did HIPDM”; in data set [3] (early time periods) it was “lower”. The “P/L (percent dose in pancreas / percent dose in liver)” value in data set [3] (5 minutes after administration) is on record as 0.22 ± 0.04; in data set [3] (setting [10]), 0.50 ± 0.11; in data set [3] (1 hour after administration) it was 0.80 ± 0.18; in data set [3] (4 hours after administration), 2.12 ± 0.35; in data set [3] (24 hours after administration) it was 6.70 ± 1.42. In addition, the “Pancreas uptake (mean percent administered dose per organ)” value is listed as 1.32 ± 0.34 percent administered dose per in data set [3] (5 minutes after administration); 2.73 ± 0.59 percent administered dose per in data set [3] (setting [10]); 3.62 ± 0.84 percent administered dose per in data set [3] (1 hour after administration); 5.35 ± 0.88 percent administered dose per in data set [3] (4 hours after administration); 5.59 ± 0.60 percent administered dose per in data set [3] (24 hours after administration). The “pancreas/liver ratios compared with HIPDM” value in data set [3] is listed as “significantly higher”.
Take `CCN(CC)CCCN(C)Cc1cc([125I])cc(C)c1O` [ERC 94, N[3(diethylamino)propyl]-N-methyl-2-hydroxy-3-methyl-5-iodobenzylamine]: the “P/L (percent dose in pancreas / percent dose in liver)” value in data set [3] (5 minutes after administration) amounted to 0.22 ± 0.04; in data set [3] (setting [10]) it was 0.61 ± 0.06; in data set [3] (1 hour after administration), 0.67 ± 0.19; in data set [3] (4 hours after administration), 1.61 ± 0.26; in data set [3] (24 hours after administration), 4.03 ± 1.76. The “Pancreas uptake (mean percent administered dose per organ)” value in data set [3] (5 minutes after administration) is recorded as 1.56 ± 0.26 percent administered dose per; in data set [3] (setting [10]) it was 2.86 ± 0.48 percent administered dose per; in data set [3] (1 hour after administration), 3.45 ± 0.90 percent administered dose per; in data set [3] (4 hours after administration), 4.65 ± 0.67 percent administered dose per; in data set [3] (24 hours after administration), 3.76 ± 1.62 percent administered dose per. Moreover, the “pancreas/liver ratios compared with HIPDM” value in data set [3] was “significantly higher”. Further, the “pancreas uptakes compared with HIPDM” value in data set [3] (all time periods studied except 24 hours) is listed as “lower than those of HIPDM”.
Turning to `Cc1cc([125I])cc(CN(C)CCCN(C)C)c1O` [HIPDM, N,N,N'-trimethyl-N'[2-hydroxy-3-methyl-5-iodobenzyl]-1,3-propanediamine, reference compound], the “localisation in the pancreas” value in data set [4] is given as “some localisation of HIPDM in the pancreas”. In addition, the “P/L (percent dose in pancreas / percent dose in liver)” value in data set [3] (5 minutes after administration) came to 0.21 ± 0.03; in data set [3] (setting [10]), 0.32 ± 0.04; in data set [3] (1 hour after administration) it was 0.46 ± 0.06; in data set [3] (4 hours after administration), 0.95 ± 0.14; in data set [3] (24 hours after administration), 1.18 ± 0.47. In addition, the “differentiation between pancreatic and liver retention” value in data set [5] (setting [12]) is listed as “difficult”. The pancreas/liver ratios entry in data set [5] (setting [12]) is “not optimal for clinical use”. The “suitability for clinical use” value in data set [5] (human) is “unsatisfactory for clinical use”.
Consider `C[75Se]CCC(N)C(=O)O` (stereo not shown) [Se-75 selenomethionine], for which the pancreatic visualisation result in data set [6] (in vivo) is listed as “inconsistency of pancreatic visualisation”. Besides, the patient radiation dose result in data set [6] (selenium-75) is “high patient radiation dose”.
